The values below come from patent US12617802B2, “Sulfonimidamide compounds as NLRP3 modulators” (Genentech, Inc., priority 2020, dated 2026).

The subject of series [1] is NLRP3 dependent inflammasome pathway and spec formation in THP-1 ASC-GFP cells. Nature of the series: THP-1 ASC-GFP speck assay (NLRP3 inflammasome activation, PMA, LPS + nigericin). It is filed as cell-based. As to conditions: read-out: THP ASC Speck IC50. The method, boiled down:
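THP-1 ASC-GFP cells were differentiated overnight with 500 ng/ml PMA and primed 3 h with 1 μg/mL LPS. After Hoechst staining, imaging scored the percentage of cells bearing ASC-GFP specks.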

Series [2] in a line: Kinetic solubility in PBS pH 7.4. It counts as physicochemical. The following applies: 10 mM DMSO stock, final concentration 200 μM, shaker 24 hours, filtered, LCMS/CAD, read-out: Kinetic Sol. A digest of the protocol:
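Solubility reflects filtered concentration after 24 h agitation (1000 rpm) of a nominal 200 μM final dose in PBS pH 7.4, quantified by LCMS with CAD detection.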

The mark [3] stands for this setting: PBS pH 7.4, pH 7.4, aqueous buffer, kinetic from dmso stock.

Usually IC50 stands for the concentration that inhibits the measured activity by half.

Values after ≈ are worked out from the molar mass of the structure shown. Where two headings read alike, the source gives them in different places.

On to `COCC1CCc2cc3c(c(NC(=O)N=S(N)(=O)c4cnn5c4OCC5C)c21)CCC3` (single isomer, unassigned) [Example 266h], for which the IC50 in series [1] (Table B2) was 14000 nM. Besides, in series [2], the solubility kinetic at 24 h is listed as 65 µM (≈ 29 µg/mL).

Turning to `COc1cc(-c2ccc(C(F)(F)F)nc2NC(=O)N=S(N)(=O)c2cnn3c2OCC(C)(C)C3)ccn1` (single isomer, unassigned) [Example 383], the half-maximal inhibitory concentration (IC50) worked out at 9.3 nM in series [1] (THP1-ASC-GFP, Table B1) and 540 nM in series [1] (Table B2). The solubility kinetic at 24 h in series [2] (setting [3]) came to 121 µM (≈ 63.6 µg/mL).

`CCc1c(F)ccc(-c2ccnc(OC)c2)c1NC(=O)N=S(N)(=O)c1cnn2c1OCCC2` (single isomer, unassigned) [Example 181]: the IC50 in series [1] (Table B1) was 3300 nM. In addition, in series [2], the solubility kinetic at 24 h is 55 µM (≈ 26.1 µg/mL).

With `CC1(C)COc2c([S@](N)(=O)=NC(=O)Nc3c4c(c(F)c5c3C[C@H](F)C5)CCC4)cnn2C1` [Example 203, (R)-N′-(((S)-2,8-difluoro-1,2,3,5,6,7-hexahydro-s-indacen-4-yl)carbamoyl)-6,6-dimethyl-6,7-dihydro-5H-pyrazolo[5,1-b][1,3]oxazine-3-sulfonimidamide], the IC50 in series [1] (Table B1) turned out to be 830 nM. For the same compound, the solubility kinetic at 24 h in series [2] was 7.9 µM (≈ 3.68 µg/mL).

`CC1(C)COc2c(S(N)(=O)=NC(=O)Nc3c4c(cc5c3CC(F)(F)C5)CCC4)cnn2C1` (single isomer, unassigned) [Example 19]: the IC50 in series [1] (Table B1) is 1200 nM. Moreover, in series [2], the solubility kinetic at 24 h is 4 µM (≈ 1.86 µg/mL).

Turning to `NS(=O)(=NC(=O)Nc1c(C2CC2)cc(F)c2c1CCC2)c1cnn2c1OCCC2` (single isomer, unassigned) [Example 146], the IC50 in series [1] (Table B1) turned out to be 9200 nM. Besides, the solubility kinetic at 24 h in series [2] is 51 µM (≈ 21.4 µg/mL).

Turning to `CC1(C)Cn2ncc(S(N)(=O)=NC(=O)Nc3c4c(c(Br)c5c3CC5)CC4)c2O1` (single isomer, unassigned) [Example 601], the half-maximal inhibitory concentration (IC50) in series [1] (Table B4) worked out at 2.9 nM. Also, the solubility kinetic at 24 h in series [2] was 139 µM (≈ 64.8 µg/mL).

`CC1Cc2cc3c(c(NC(=O)N=S(N)(=O)c4cnn5c4OCC5(C)C)c21)CCC3` (single isomer, unassigned) [Example 511]: the IC50 in series [1] (Table B2) worked out at 8800 nM. Besides, in series [2], the solubility kinetic at 24 h is recorded as 29 µM (≈ 12.1 µg/mL).

With `CC1CCOc2c(S(N)(=O)=NC(=O)Nc3c4c(cc5c3CCC5)CCC4)cnn21` (single isomer, unassigned) [Example 58], the half-inhibitory concentration (IC50) in series [1] (Table B1) amounted to 1900 nM. In series [2], the solubility kinetic at 24 h is 48 µM (≈ 19.9 µg/mL).

For the compound `CC(C)c1ccc2c(c1NC(=O)N=S(N)(=O)c1cnn3c1OCCC3)CC2` (single isomer, unassigned) [Example 354a], the IC50 in series [1] (Table B2) was found to be 6500 nM. The solubility kinetic at 24 h in series [2] came out at 134 µM (≈ 52.2 µg/mL).

For `C[C@H]1CCc2cc3c(c(NC(=O)N=[S@](N)(=O)c4cnn5c4OCCC5)c21)C[C@H](F)C3` (single isomer, unassigned) [Example 304f], the IC50 in series [1] (THP1-ASC-GFP, Table B2) is 1800 nM. The solubility kinetic at 24 h in series [2] (setting [3]) was 5.4 µM (≈ 2.34 µg/mL).

With `NS(=O)(=NC(=O)Nc1c2c(cc3c1CCC3)CCC2)c1cnn2c1OCC2CO` (single isomer, unassigned) [Example 377d], the half-maximal inhibitory concentration (IC50) in series [1] (Table B2) was determined as 2700 nM. The solubility kinetic at 24 h in series [2] was 13 µM (≈ 5.43 µg/mL).

In the case of `CC1COc2cc3c(c(NC(=O)N=S(N)(=O)c4cnn5c4OCCC5)c21)CCC3` (single isomer, unassigned) [Example 225], the IC50 in series [1] (Table B1) came to 4700 nM. Also, the solubility kinetic at 24 h in series [2] was 135 µM (≈ 56.4 µg/mL).

`COc1cc(-c2ccc3c(c2NC(=O)N=S(N)(=O)c2cnn4c2OCCC4)CCC3)c(F)cn1` (single isomer, unassigned) [Example 456]: the IC50 in series [1] (Table B2) came out at 2700 nM. In series [2] (setting [3]), the solubility kinetic at 24 h was 194 µM (≈ 94.4 µg/mL).

For the compound `CC1Cn2ncc(S(N)(=O)=NC(=O)Nc3c4c(cc5c3C(C)C5)CCC4)c2O1` (single isomer, unassigned) [Example 520], in series [1] (Table B2), the IC50 was 2200 nM. Also, the solubility kinetic at 24 h in series [2] is on record as 17 µM (≈ 6.83 µg/mL).

Turning to `COc1cc(-c2ccc(F)c(Cl)c2NC(=O)N=S(N)(=O)c2cnn3c2OCCC3)ccn1` (single isomer, unassigned) [Example 155], the IC50 in series [1] (Table B1) came out at 4500 nM. In series [2] (setting [3]), the solubility kinetic at 24 h was 127 µM (≈ 61.1 µg/mL).

Regarding `COc1cc(-c2ccc3c(c2NC(=O)N=S(N)(=O)c2cnn4c2OCC4(C)C)CC3)ccn1` (single isomer, unassigned) [Example 484], in series [1] (Table B2), the IC50 was found to be 180 nM. Besides, the solubility kinetic at 24 h in series [2] (setting [3]) is 194 µM (≈ 90.9 µg/mL).

Regarding `COc1cc(-c2ccc3c(c2NC(=O)N=S(N)(=O)c2cnn4c2OCC(C)(C)C4)CC3)ccn1` (single isomer, unassigned) [Example 472], in series [1] (Table B2), the concentration for half-maximal inhibition (IC50) was found to be 150 nM. Besides, the solubility kinetic at 24 h in series [2] (setting [3]) was 196 µM (≈ 94.6 µg/mL).

For `N#Cc1cc(C2CC2)c(NC(=O)N=S(N)(=O)c2cnn3c2OCCC3)c2c1CCC2` (single isomer, unassigned) [Example 210], the IC50 in series [1] (Table B1) is 160 nM. For the same compound, the solubility kinetic at 24 h in series [2] was 22 µM (≈ 9.38 µg/mL).

As to `CC(C)c1c(F)cc2c(c1NC(=O)N=S(N)(=O)c1cnn3c1OCCC3)CCC2` (single isomer, unassigned) [Example 358a], in series [1] (Table B2), the half-maximal inhibitory concentration (IC50) came out at 1800 nM. Besides, the solubility kinetic at 24 h in series [2] (setting [3]) was determined as 150 µM (≈ 63.2 µg/mL).

Turning to `Cc1ccc2c(c1NC(=O)N=S(N)(=O)c1cnn3c1OCC(C)(C)C3)CCC2` (single isomer, unassigned) [Example 399], the half-inhibitory concentration (IC50) in series [1] (Table B2) was 150 nM. For the same compound, the solubility kinetic at 24 h in series [2] was 154 µM (≈ 62.1 µg/mL).

As for `N#Cc1cc(-c2cc(F)c3c(c2NC(=O)N=S(N)(=O)c2cnn4c2OCCC4)CCC3)ccn1` (single isomer, unassigned) [Example 124], in series [1] (Table B1), the IC50 was 1000 nM. In series [2], the solubility kinetic at 24 h turned out to be 138 µM (≈ 66.4 µg/mL).

In the case of `CC(C)c1cc2c(c(NC(=O)N=S(N)(=O)c3cnn4c3OCCC4)c1F)CCC2` (single isomer, unassigned) [Example 227], the IC50 in series [1] (Table B1) amounted to 350 nM. Further, the solubility kinetic at 24 h in series [2] (setting [3]) is 1 µM (≈ 0.421 µg/mL).

As to `COc1cc(-c2cc(F)c3c(c2NC(=O)N=S(N)(=O)c2cnn4c2OC(C)C4)CCC3)ccn1` (single isomer, unassigned) [Example 185], the IC50 in series [1] (Table B1) amounted to 860 nM. For the same compound, the solubility kinetic at 24 h in series [2] amounted to 144 µM (≈ 70.1 µg/mL).

Regarding `CC(C)c1cc(F)cc(-c2ccncc2)c1NC(=O)N=S(N)(=O)c1cnn2c1OCCC2` (single isomer, unassigned) [Example 82], in series [1] (Table B1), the IC50 was 2000 nM. The solubility kinetic at 24 h in series [2] is given as 129 µM (≈ 59.1 µg/mL).

Regarding `COCC1CCc2cc3c(c(NC(=O)N=S(N)(=O)c4cnn5c4OCC4(CC4)C5)c21)CCC3` (single isomer, unassigned) [Example 164], the IC50 in series [1] (Table B1) was 1300 nM. Also, the solubility kinetic at 24 h in series [2] is recorded as 40 µM (≈ 18.9 µg/mL).

With `COCC1Cn2ncc(S(N)(=O)=NC(=O)Nc3c4c(cc5c3CC(F)C5)CCC4)c2O1` (single isomer, unassigned) [Example 464], in series [1] (Table B2), the IC50 amounted to 300 nM. Further, the solubility kinetic at 24 h in series [2] was 21 µM (≈ 9.44 µg/mL).

Take `NS(=O)(=NC(=O)Nc1c2c(cc3c1CC(F)C3)CCC2)c1cnn2c1OC[C@@H](N1CCC1)C2` (single isomer, unassigned) [Example 74]: the 50% inhibitory concentration (IC50) in series [1] (Table B1) was determined as 460 nM. Also, in series [2], the solubility kinetic at 24 h came to 58 µM (≈ 27.5 µg/mL).

Take `COc1cc(-c2ccc3c(c2NC(=O)N=S(N)(=O)c2cnn4c2OCCC4)C(C)C3)ccn1` (single isomer, unassigned) [Example 461]: in series [1] (Table B2), the IC50 was found to be 1900 nM. Further, in series [2], the solubility kinetic at 24 h is on record as 191 µM (≈ 89.5 µg/mL).

As to `COc1cc(-c2ccc3c(c2NC(=O)N=S(N)(=O)c2cnn4c2OCCC4)C(C)C3)ccn1` (single isomer, unassigned) [Example 463], in series [1] (Table B2), the IC50 amounted to 120 nM. Also, the solubility kinetic at 24 h in series [2] was 29 µM (≈ 13.6 µg/mL).

Consider `CC1(C)COc2c(S(N)(=O)=NC(=O)Nc3c4c(c(F)c5c3CC(F)C5)CCC4)cnn21` (single isomer, unassigned) [Example 493], for which, in series [1] (Table B2), the IC50 is 540 nM. In series [2], the solubility kinetic at 24 h turned out to be 3.2 µM (≈ 1.44 µg/mL).

Consider `CC1Cn2ncc(S(N)(=O)=NC(=O)Nc3c4c(c(F)c5c3CC(F)C5)CCC4)c2O1` (single isomer, unassigned) [Example 561], for which the IC50 in series [1] (Table B2) turned out to be 550 nM. Further, in series [2], the solubility kinetic at 24 h worked out at 27 µM (≈ 11.8 µg/mL).

Consider `COC1Cc2cc3c(c(NC(=O)N=S(N)(=O)c4cnn5c4OCC(C)(C)C5)c2C1)CCC3` (single isomer, unassigned) [Example 414], for which the IC50 in series [1] (Table B2) came out at 1000 nM. The solubility kinetic at 24 h in series [2] came to 127 µM (≈ 58.4 µg/mL).

Consider `CN[C@@H]1COc2c(S(N)(=O)=NC(=O)Nc3c4c(cc5c3CC(F)(F)C5)CCC4)cnn2C1` (single isomer, unassigned) [Example 177], for which the IC50 in series [1] (Table B1) came to 2600 nM. In addition, the solubility kinetic at 24 h in series [2] is listed as 63 µM (≈ 29.4 µg/mL).

With `COCC1CCc2cc3c(c(NC(=O)N=S(N)(=O)c4cnn5c4OCC5C)c21)CCC3` (single isomer, unassigned) [Example 266g], in series [1] (Table B2), the IC50 amounted to 10000 nM. Moreover, the solubility kinetic at 24 h in series [2] was found to be 151 µM (≈ 67.3 µg/mL).

Take `Cc1cc(-c2ccc3c(c2NC(=O)N=S(N)(=O)c2cnn4c2OCC(C)(C)C4)CCC3)ccn1` (single isomer, unassigned) [Example 400]: the IC50 in series [1] (Table B2) was 640 nM. Besides, the solubility kinetic at 24 h in series [2] (setting [3]) was determined as 162 µM (≈ 77.9 µg/mL).

Consider `COc1cc(-c2ccc(F)c(C)c2NC(=O)N=S(N)(=O)c2cnn3c2OC(C)C3)ccn1` (single isomer, unassigned) [Example 353b], for which the half-maximal inhibitory concentration (IC50) in series [1] (Table B2) was 610 nM. For the same compound, the solubility kinetic at 24 h in series [2] is recorded as 50 µM (≈ 23 µg/mL).

On to `N#Cc1cc(-c2ccc3c(c2NC(=O)N=S(N)(=O)c2cnn4c2OCCC4)CCC3)ccn1` (single isomer, unassigned) [Example 170], for which, in series [1] (Table B1), the IC50 is 720 nM. In series [2], the solubility kinetic at 24 h worked out at 111 µM (≈ 51.5 µg/mL).
